Laboratory results as given in patent US20200246316A1, “METHODS OF TREATING POST-SURGICAL PAIN WITH A THIAZOLINE ANTI-HYPERALGESIC AGENT” (CERSCI THERAPEUTICS, INC., priority 2019, published 2020).
Structures can show the parent of a compound that is named as a salt. Where two headings read alike, the source gives them in different places.

Assay: Rat 28-day GLP repeat dose PO study (toxicokinetics)
Assay type: in vivo
Settings: rat, in vivo, po; for Cmax: read-out: Cmax; for half-life: read-out: t1/2 (converted); for Tmax: read-out: tmax
Protocol: The vehicle was 0.5% HPMC. There were 15 rats/sex in the control and high dose groups (5/sex for a 14-day recovery period) while the low and mid doses consisted of 10 rats/sex. Satellite groups of rats/sex/group for toxicokinetics were included.
Rats in Group 1 (Vehicle Control) were bled once at approximately 1 hour post-dose on those days.

[1] = female, 2000 mg/kg, Day 14, F, 2000 mg/kg PO
[2] = female, 2000 mg/kg, Day 28, F, 2000 mg/kg PO
[3] = male, 500 mg/kg, Day 1, M, 500 mg/kg PO
[4] = male, 500 mg/kg, Day 14, M, 500 mg/kg PO
[5] = male, 500 mg/kg, Day 28, M, 500 mg/kg PO
[6] = male, 1000 mg/kg, Day 1, M, 1000 mg/kg PO
[7] = male, 1000 mg/kg, Day 14, M, 1000 mg/kg PO
[8] = male, 1000 mg/kg, Day 28, M, 1000 mg/kg PO
[9] = male, 2000 mg/kg, Day 1, M, 2000 mg/kg PO
[10] = male, 2000 mg/kg, Day 14, M, 2000 mg/kg PO
[11] = male, 2000 mg/kg, Day 28, M, 2000 mg/kg PO

For CC1(C)SC(Nc2ccccc2O)=N[C@@H]1C(=O)O [Compound 1, (R)-2-(2-hydroxyphenylamino)-5,5-dimethyl-4,5-dihydrothiazole-4-carboxylic acid mono-hydrochloride], the AUC [1] was 942 µg·h/mL, the AUC(0-inf) [1] was 952 µg·h/mL and the CL/F (female, 2000 mg/kg, Day 14, F, 2000 mg/kg PO, read-out: CL/F (CLss/F) (converted)) was 35.3 mL/min/kg. The Cmax [1] was 127 µg/mL, the Vd/F (female, 2000 mg/kg, Day 14, F, 2000 mg/kg PO, read-out: V/F (Vss/F)) was 10.9 L/kg and the half-life [1] was 3.56 h. For the same molecule, the Tmax [1] was 1 h, the AUC [2] was 1300 µg·h/mL and the AUC(0-inf) [2] was 1330 µg·h/mL. For the same molecule, the CL/F (female, 2000 mg/kg, Day 28, F, 2000 mg/kg PO, read-out: CL/F (CLss/F) (converted)) was 25.5 mL/min/kg, the Cmax [2] was 139 µg/mL and the Vd/F (female, 2000 mg/kg, Day 28, F, 2000 mg/kg PO, read-out: V/F (Vss/F)) was 8.7 L/kg. It also gave a half-life [2] of 3.93 h, a Tmax [2] of 0.5 h and an AUC [3] of 270 µg·h/mL. The AUC(0-inf) [3] was 275 µg·h/mL, the CL/F (male, 500 mg/kg, Day 1, M, 500 mg/kg PO, read-out: CL/F (CLz/F) (converted)) was 30.3 mL/min/kg and the Cmax [3] was 55.1 µg/mL. The Vd/F (male, 500 mg/kg, Day 1, M, 500 mg/kg PO, read-out: V/F (Vz/F)) was 11 L/kg, the half-life [3] was 4.18 h and the Tmax [3] was 1 h. The AUC [4] was 244 µg·h/mL, the AUC(0-inf) [4] was 258 µg·h/mL and the CL/F (male, 500 mg/kg, Day 14, M, 500 mg/kg PO, read-out: CL/F (CLss/F) (converted)) was 34.2 mL/min/kg. It also gave a Cmax [4] of 45.8 µg/mL, a Vd/F (male, 500 mg/kg, Day 14, M, 500 mg/kg PO, read-out: V/F (Vss/F)) of 18.5 L/kg and a half-life [4] of 6.27 h. The Tmax [4] was 1 h, the AUC [5] was 305 µg·h/mL and the AUC(0-inf) [5] was 333 µg·h/mL. It also gave a CL/F (male, 500 mg/kg, Day 28, M, 500 mg/kg PO, read-out: CL/F (CLss/F) (converted)) of 27.3 mL/min/kg, a Cmax [5] of 48.6 µg/mL and a Vd/F (male, 500 mg/kg, Day 28, M, 500 mg/kg PO, read-out: V/F (Vss/F)) of 16.4 L/kg. For the same molecule, the half-life [5] was 6.9 h, the Tmax [5] was 1 h and the CL/F (male, 1000 mg/kg) was 56.8 mL/min/kg. It also gave an AUC [6] of 456 µg·h/mL, an AUC(0-inf) [6] of 460 µg·h/mL and a CL/F (male, 1000 mg/kg, Day 1, M, 1000 mg/kg PO, read-out: CL/F (CLz/F) (converted)) of 36.2 mL/min/kg. For the same molecule, the Cmax [6] was 52.7 µg/mL, the Vd/F (male, 1000 mg/kg, Day 1, M, 1000 mg/kg PO, read-out: V/F (Vz/F)) was 10.9 L/kg and the half-life [6] was 3.46 h. For the same molecule, the Tmax [6] was 1 h, the AUC [7] was 293 µg·h/mL and the AUC(0-inf) [7] was 296 µg·h/mL. The Cmax [7] was 51.9 µg/mL, the Vd/F (male, 1000 mg/kg, Day 14, M, 1000 mg/kg PO, read-out: V/F (Vss/F)) was 18.1 L/kg and the half-life [7] was 3.68 h. For the same molecule, the Tmax [7] was 1 h, the AUC [8] was 334 µg·h/mL and the AUC(0-inf) [8] was 337 µg·h/mL. It also gave a CL/F (male, 1000 mg/kg, Day 28, M, 1000 mg/kg PO, read-out: CL/F (CLss/F) (converted)) of 49.8 mL/min/kg, a Cmax [8] of 47.9 µg/mL and a Vd/F (male, 1000 mg/kg, Day 28, M, 1000 mg/kg PO, read-out: V/F (Vss/F)) of 14.3 L/kg. For the same molecule, the half-life [8] was 3.31 h, the CL/F (male, 2000 mg/kg) was 47.7 mL/min/kg and the AUC [9] was 768 µg·h/mL. For the same molecule, the AUC(0-inf) [9] was 771 µg·h/mL, the CL/F (male, 2000 mg/kg, Day 1, M, 2000 mg/kg PO, read-out: CL/F (CLz/F) (converted)) was 43.2 mL/min/kg and the Cmax [9] was 83.1 µg/mL. For the same molecule, the Vd/F (male, 2000 mg/kg, Day 1, M, 2000 mg/kg PO, read-out: V/F (Vz/F)) was 10.5 L/kg, the half-life [9] was 2.81 h and the AUC [10] was 701 µg·h/mL. It also gave an AUC(0-inf) [10] of 709 µg·h/mL, a Cmax [10] of 75.6 µg/mL and a Vd/F (male, 2000 mg/kg, Day 14, M, 2000 mg/kg PO, read-out: V/F (Vss/F)) of 15.1 L/kg. It also gave a half-life [10] of 3.66 h, a Tmax [10] of 1 h and an AUC [11] of 724 µg·h/mL. It also gave an AUC(0-inf) [11] of 731 µg·h/mL, a CL/F (male, 2000 mg/kg, Day 28, M, 2000 mg/kg PO, read-out: CL/F (CLss/F) (converted)) of 46 mL/min/kg and a Cmax [11] of 83.6 µg/mL. For the same molecule, the Vd/F (male, 2000 mg/kg, Day 28, M, 2000 mg/kg PO, read-out: V/F (Vss/F)) was 14.1 L/kg, the half-life [11] was 3.53 h and the t1/2 (2000 mg/kg) was 8 05 hr.
